The source made the active and inactive calls. The rule behind the calls is not given here.
What was measured:
Settings in all cases: Abdomen
[1] = test system: Mus musculus; experiment: Antinociceptive activity in Swiss albino mouse assessed as inhibition of acetic acid-induced abdominal constriction at 40 mg/kg, po administered 30 mins prior to testing measured for 10 mins starting 5 mins after acetic acid injection relative to control; format: functional
[2] = test system: Mus musculus; experiment: Antinociceptive activity in Swiss albino mouse assessed as inhibition of acetic acid-induced abdominal constriction at 80 mg/kg, po administered 30 mins prior to testing measured for 10 mins starting 5 mins after acetic acid injection relative to control; format: functional
[3] = test system: Mus musculus; experiment: Antinociceptive activity in Swiss albino mouse assessed as inhibition of acetic acid-induced abdominal constriction at 20 mg/kg, po administered 30 mins prior to testing measured for 10 mins starting 5 mins after acetic acid injection relative to control; format: functional
[4] = test system: Mus musculus; experiment: Antinociceptive activity in Swiss albino mouse assessed as inhibition of acetic acid-induced abdominal constriction at 20 mg/kg, po administered 30 mins prior to testing measured for 10 mins starting 5 mins after acetic acid injection in presence of alpha-2 adrenergic receptor antagonist yohimbine; format: functional, organism-based
[5] = test system: Mus musculus; experiment: Antinociceptive activity in Swiss albino mouse assessed as inhibition of acetic acid-induced abdominal constriction at 10 mg/kg, po administered 30 mins prior to testing measured for 10 mins starting 5 mins after acetic acid injection relative to control; format: functional
[6] = test system: Mus musculus; experiment: Antinociceptive activity in Swiss albino mouse assessed as inhibition of acetic acid-induced abdominal constriction at 40 mg/kg, po administered 30 mins prior to testing measured for 10 mins starting 5 mins after acetic acid injection in presence of alpha-2 adrenergic receptor antagonist yohimbine; format: functional, organism-based
[7] = test system: Mus musculus; experiment: Antinociceptive activity in Swiss albino mouse assessed as inhibition of acetic acid-induced abdominal constriction at 30 mg/kg, po administered 30 mins prior to testing measured for 10 mins starting 5 mins after acetic acid injection in presence of alpha-2 adrenergic receptor antagonist yohimbine; format: functional, organism-based
[8] = test system: Mus musculus; experiment: Antinociceptive activity in Swiss albino mouse assessed as inhibition of acetic acid-induced abdominal constriction at 30 mg/kg, po administered 30 mins prior to testing measured for 10 mins starting 5 mins after acetic acid injection relative to control; format: functional

| Compound | inhibition in vivo at 40 mg/kg [1] | inhibition in vivo at 80 mg/kg [2] | inhibition in vivo at 20 mg/kg [3] | inhibition [4] | inhibition in vivo at 10 mg/kg [5] | inhibition [6] | inhibition [7] | inhibition in vivo at 30 mg/kg [8] | inhibition [8] | inhibition [5] |
| --- | --- | --- | --- | --- | --- | --- | --- | --- | --- | --- |
| CC(=O)c1cccn1CCCN1CCN(c2ccc([N+](=O)[O-])cc2)CC1 | 0% | 9% | 11% | – | – | – | – | – | – | – |
| Cc1ccc(N2CCN(CCCn3nc(-c4ccccc4)c(C#N)c3C)CC2)cc1 | 30% | – | 8% | inactive | 0% | – | – | – | – | – |
| COc1cccc(N2CCN(CCCn3cccc3C(C)=O)CC2)c1 | 52% | – | 26% | – | 0% | inactive | – | – | – | – |
| COc1cccc(N2CCN(CCCn3c(-c4ccccc4)coc3=O)CC2)c1 | 39% | – | 25% | inactive | 8% | – | – | – | – | – |
| CCc1c(C)nn(CCCN2CCN(c3ccc(C)cc3)CC2)c(=O)c1N | – | – | – | – | 23% | – | inactive | 45% | – | – |
| CC(=O)c1cccn1CCCN1CCN(c2ccc(F)cc2)CC1 | 38% | – | 16% | – | 0% | inactive | – | – | – | – |
| Cc1c(C#N)c(-c2ccccc2)nn1CCCN1CCN(c2ccc(F)cc2)CC1 | 51% | – | 28% | – | 9% | inactive | – | – | – | – |
| O=c1occ(-c2ccccc2)n1CCCN1CCN(c2ccc(F)cc2)CC1 | 34% | – | 12% | – | 14% | inactive | – | – | – | – |
| CCC(=O)c1c(C)nn(CCCN2CCN(c3ccc(C)cc3)CC2)c(=O)c1N | 29% | – | 40% | inactive | 9% | – | – | – | – | – |
| C=Cc1c(C)nn(CCCN2CCN(C(=O)c3ccc(Cl)c(F)c3)CC2)c(=O)c1N | – | – | – | – | – | – | – | – | inactive | inactive |
| C=Cc1c(CCC)nn(CCCN2CCN(c3ccc(C)cc3)CC2)c(=O)c1N | 22% | – | 7% | – | 3% | inactive | – | – | – | – |
| Cc1c(C#N)c(-c2ccccc2)nn1CCCN1CCN(c2cccc(Cl)c2)CC1 | 23% | – | 0% | – | – | inactive | – | – | – | – |
| C=Cc1c(C)nn(CCCN2CCN(c3ccc(C)cc3)CC2)c(=O)c1N | 65% | – | – | – | 33% | inactive | – | 59% | – | – |
| C=Cc1c(CC)nn(CCCN2CCN(c3ccc(C)cc3)CC2)c(=O)c1N | 28% | – | 0% | – | 0% | inactive | – | – | – | – |
| C=Cc1c(C)nn(CCCN2CCCN(c3ccc(C)cc3)CC2)c(=O)c1N | 31% | – | 10% | – | 0% | inactive | – | – | – | – |
| C=Cc1c(C)nn(CC(C)CN2CCN(c3ccc(C)cc3)CC2)c(=O)c1N (configuration not stated) | – | – | – | – | 17% | – | inactive | 47% | – | – |

| Compound | inhibition in vivo at 40 mg/kg [1] | inhibition in vivo at 80 mg/kg [2] | inhibition in vivo at 20 mg/kg [3] | inhibition [4] | inhibition in vivo at 10 mg/kg [5] | inhibition [6] | inhibition [7] | inhibition in vivo at 30 mg/kg [8] | inhibition [8] | inhibition [5] |
| --- | --- | --- | --- | --- | --- | --- | --- | --- | --- | --- |
| CCC/C=C/c1c(C)nn(CCCN2CCN(c3ccc(C)cc3)CC2)c(=O)c1N | 36% | – | 16% | – | 0% | inactive | – | – | – | – |
| CCCC(=O)c1c(C)nn(CCCN2CCN(c3ccc(C)cc3)CC2)c(=O)c1N | 32% | – | 25% | inactive | 0% | – | – | – | – | – |
| COc1cccc(N2CCN(CCCn3nc(-c4ccccc4)c(C#N)c3C)CC2)c1 | 34% | – | 21% | inactive | 0% | – | – | – | – | – |
| CC/C=C/c1c(C)nn(CCCN2CCN(c3ccc(C)cc3)CC2)c(=O)c1N | 45% | – | 35% | inactive | 5% | – | – | – | – | – |
| CC(=O)c1c(C)nn(CCCN2CCN(c3ccc(C)cc3)CC2)c(=O)c1N | – | – | – | – | 19% | – | inactive | 46% | – | – |
| C=Cc1c(C)nn(CCCN2CCN(c3ccc(F)cc3)CC2)c(=O)c1N | – | – | – | – | 0% | – | inactive | 28% | – | – |
| CCCCC(=O)c1c(C)nn(CCCN2CCN(c3ccc(C)cc3)CC2)c(=O)c1N | 15% | – | 23% | inactive | 8% | – | – | – | – | – |
| C/C=C/c1c(C)nn(CCCN2CCN(c3ccc(C)cc3)CC2)c(=O)c1N | 63% | – | 44% | inactive | 0% | – | – | – | – | – |
| CC(=O)c1cccn1CCCN1CCN(c2ccc(C)cc2)CC1 | 9% | 4% | 7% | – | 12% | – | – | – | – | – |
| Cc1c(C#N)c(-c2ccccc2)nn1CCCN1CCN(c2ccc([N+](=O)[O-])cc2)CC1 | 49% | – | 21% | – | 0% | inactive | – | – | – | – |
| C=Cc1c(C)nn(CCCCN2CCN(c3ccccc3OCC)CC2)c(=O)c1N | – | – | – | – | – | – | – | – | inactive | inactive |
| O=c1occ(-c2ccccc2)n1CCCN1CCN(c2cccc(Cl)c2)CC1 | 38% | – | 31% | inactive | 7% | – | – | – | – | – |
| CCc1nn(CCCN2CCN(c3ccc(C)cc3)CC2)c(=O)c(N)c1C(C)=O | 41% | – | 42% | inactive | 10% | – | – | – | – | – |
| C=Cc1c(C)nn(CCCCN2CCN(c3ccc(C)cc3)CC2)c(=O)c1N | – | – | – | – | 3% | – | inactive | 42% | – | – |
| C=Cc1c(CCCC)nn(CCCN2CCN(c3ccc(C)cc3)CC2)c(=O)c1N | 48% | – | 41% | inactive | 0% | – | – | – | – | – |
| CC(=O)c1cccn1CCCN1CCN(c2cccc(Cl)c2)CC1 | 54% | – | 41% | inactive | 3% | – | – | – | – | – |

Source: ChEMBL document CHEMBL3612024, “Synthesis of five and six-membered heterocycles bearing an arylpiperazinylalkyl side chain as orally active antinociceptive agents” (2015)
